Results reported in PubChem BioAssay AID2060495 (Molecular Pharmacology Branch, DTP, NCI, 2025).
Values joined by “and” are separate entries in the source; they are usually repeats but may differ in a detail not shown here. Equal entries are not always repeated.

Tested on: 521955-158-R2-J5-PDC complex spheroid viability
Assay: Anticancer human tumor 521955-158-R2-J5-PDC patient-derived pancreatic carcinoma cell line growth inhibition [GQUAD]
Conditions: for viability, T/C: stronger effect = lower value
From the text: DNA G-quadruplex Stabilizer Agents in Combinations in Complex Spheroids
A high-throughput screen of multi-cell type tumor spheroids was designed to identify active combinations of DNA G-quadruplex stabilizer agents and targeted small molecules. Complex spheroids include a stromal component modeled by human endothelial cells (HUVEC) and fibroblasts modeled by human mesenchymal stem cells (MSCs). The concentration ranges selected for each drug and investigational agent were based upon clinically achievable concentrations if the clinical Cmax of the agent was known.
Compounds. The drugs and investigational agents: pidnarulex (CX-5461; NSC782164), APTO-253 (NSC789042), BRACO-19 (NSC847499), peposertib (NSC802822), ceralasertib (NSC780249), elimusertib (NSC800525), camonsertib (NSC841442), AZD-1390 (NSC803789), olaparib (NSC753686), talazoparib (NSC767125), ART-558 (NSC835418), sotorasib (NSC818433), MRTX-1133 (NSC836407), SN-38 (NSC673596), topotecan (NSC609699), etoposide (NSC141540), doxorubicin (NSC123127), gemcitabine (NSC613327), 5-fluorouracil (NSC19893), paclitaxel (NSC125973), vemurafenib (NSC761431), panobinostat (NSC761190), R-306465 (JNJ-16241199; NSC773264), adavosertib (NSC754352), TP-3654 (NSC805149), carboplatin (NSC241240), KSQ-4279 (NSC840948), and staurosporine (NSC755774) were obtained from the National Cancer Institute (NCI) Developmental Therapeutics Program Chemical Repository (34). The FDA-approved anticancer drug set is available from the NCI Developmental Therapeutics Program. […] The stock solutions were prepared in dimethyl sulfoxide (DMSO, Sigma-Aldrich, St. Louis, MO, cat. D2650) at 800-fold the tested concentration and stored at -70 degrees C prior to their use. All drugs and investigational agents were tested over a range starting from a high concentration at or near the clinical Cmax and decreasing in half-log increments. If the clinical Cmax for an agent had not been determined, the highest concentration tested was 10 microM.
2.3 Cell Culture. All cells were maintained in an incubator at 37 degrees C and 5% CO2 with 95% humidity. The PDC lines were cultured according to standard operating procedures established by the NCI PDMR. All PDCs were thawed and cultured in Matrigel-coated flasks prepared with a working solution of 1X Ham's F-12 nutrient mix, without supplementation (Invitrogen, cat. 11765054), 100 U/mL penicillin-streptomycin (Invitrogen, cat. 15140122), and 2.5% Matrigel (Corning Inc., cat. 354248) for the first three passages. The 857933-349-R-J2-PDC line was cultured in 6C/Colon 1B media, which includes advanced DMEM/F-12 (Thermo Fisher Scientific, cat. 12634028), 10 mM HEPES (Thermo Fisher Scientific, cat. 15630080), 1X GlutaMAX supplement (Thermo Fisher Scientific, cat. 35050061), 0.1 mg/mL primocin (InvivoGen, cat. ant-pm-2), 10% defined fetal bovine serum, heat inactivated (HyClone Laboratories Inc., cat. SH30070.03HI), 50% L-WRN conditioned media (ATCC, cat. CRL-3276), 1.25 mM N-Acetyl-L-cysteine (Sigma-Aldrich, cat. A9165), 10 mM nicotinamide (Sigma-Aldrich, cat. N0636), 1X B-27 supplement (Thermo Fisher Scientific, cat. 17504044), 1X N-2 supplement (Thermo Fisher Scientific, cat. 17502048), 10 microM Y-27632 dihydrochloride (Tocris Bioscience, cat. 1254), and 50 ng/mL human EGF recombinant protein (Thermo Fisher Scientific, cat. PHG0311). The 485176-168-R4-J1-PDC line was cultured in Panc media, which includes all 6C/Colon 1B media components plus 100 ng/mL human FGF-10 (Thermo Fisher Scientific, cat. 100-26), 500 nM SB-431542 (Selleckchem, cat. S1067), and gastrin (Tocris, cat. 3006).
[…]

[1] = curve of first compound, second compound 0.0316 µM
[2] = curve of first compound, second compound 0.1 µM
[3] = curve of first compound, second compound 0.316 µM
[4] = curve of first compound, second compound 1 µM
[5] = curve of first compound, second compound 3.16 µM
[6] = curve of first compound, second compound 10 µM
[7] = second compound 0.0316 µM, first compound 0.0316 µM
[8] = second compound 0.0316 µM, first compound 0.1 µM
[9] = second compound 0.0316 µM, first compound 0.316 µM
[10] = second compound 0.0316 µM, first compound 1 µM
[11] = second compound 0.0316 µM, first compound 3.16 µM
[12] = second compound 0.0316 µM, first compound 10 µM
[13] = second compound 0.1 µM, first compound 0.0316 µM
[14] = second compound 0.1 µM, first compound 0.1 µM
[15] = second compound 0.1 µM, first compound 0.316 µM
[16] = second compound 0.1 µM, first compound 1 µM
[17] = second compound 0.1 µM, first compound 3.16 µM
[18] = second compound 0.1 µM, first compound 10 µM
[19] = second compound 0.316 µM, first compound 0.0316 µM
[20] = second compound 0.316 µM, first compound 0.1 µM
[21] = second compound 0.316 µM, first compound 0.316 µM
[22] = second compound 0.316 µM, first compound 1 µM
[23] = second compound 0.316 µM, first compound 3.16 µM
[24] = second compound 0.316 µM, first compound 10 µM
[25] = second compound 1 µM, first compound 0.0316 µM
[26] = second compound 1 µM, first compound 0.1 µM
[27] = second compound 1 µM, first compound 0.316 µM
[28] = second compound 1 µM, first compound 1 µM
[29] = second compound 1 µM, first compound 3.16 µM
[30] = second compound 1 µM, first compound 10 µM
[31] = second compound 3.16 µM, first compound 0.0316 µM
[32] = second compound 3.16 µM, first compound 0.1 µM
[33] = second compound 3.16 µM, first compound 0.316 µM
[34] = second compound 3.16 µM, first compound 1 µM
[35] = second compound 3.16 µM, first compound 3.16 µM
[36] = second compound 3.16 µM, first compound 10 µM
[37] = second compound 10 µM, first compound 0.0316 µM
[38] = second compound 10 µM, first compound 0.1 µM
[39] = second compound 10 µM, first compound 0.316 µM
[40] = second compound 10 µM, first compound 1 µM
[41] = second compound 10 µM, first compound 3.16 µM
[42] = second compound 10 µM, first compound 10 µM
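Also: spheroids exposed to agents for one week before reading.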
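For viability, T/C in this document: 100% = DMSO vehicle control viability.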

Molecule `O=C(c1cc(Cc2n[nH]c(=O)c3ccccc23)ccc1F)N1CCN(C(=O)C2CC2)CC1` + CN(C)c1ccc(Nc2c3ccc(NC(=O)CCN4CCCC4)cc3nc3cc(NC(=O)CCN4CCCC4)ccc23)cc1 has an IC50 [1] of over 10 µM, an IC50 [2] of over 10 µM and an IC50 [3] of over 10 µM. The IC50 [4] was over 10 µM, the IC50 [5] was over 10 µM and the IC50 [6] was over 10 µM. It also gave a viability, T/C [7] of 93.1%, a viability, T/C [8] of 85.2% and a viability, T/C [9] of 94%. For the same molecule, the viability, T/C [10] was 83.5%, the viability, T/C [11] was 97.1% and the viability, T/C [12] was 85.5%. The viability, T/C [13] was 94.4%, the viability, T/C [14] was 89.4% and the viability, T/C [15] was 97.5%. The viability, T/C [16] was 86.6%, the viability, T/C [17] was 88.3% and the viability, T/C [18] was 71.9%. It also gave a viability, T/C [19] of 93%, a viability, T/C [20] of 90.9% and a viability, T/C [21] of 91%. The viability, T/C [22] was 85.4%, the viability, T/C [23] was 92.6% and the viability, T/C [24] was 84.1%. The viability, T/C [25] was 90%, the viability, T/C [26] was 82.7% and the viability, T/C [27] was 92.3%. The viability, T/C [28] was 84.5%, the viability, T/C [29] was 102% and the viability, T/C [30] was 72.8%. For the same molecule, the viability, T/C [31] was 75.4%, the viability, T/C [32] was 90.5% and the viability, T/C [33] was 67.1%. It also gave a viability, T/C [34] of 77.4%, a viability, T/C [35] of 80% and a viability, T/C [36] of 71.5%. For the same molecule, the viability, T/C [37] was 57%, the viability, T/C [38] was 64.5% and the viability, T/C [39] was 68.7%. The viability, T/C [40] was 56.5%, the viability, T/C [41] was 48.7% and the viability, T/C [42] was 63%.

`O=C(NO)c1cnc(N2CCN(S(=O)(=O)c3ccc4ccccc4c3)CC2)nc1` + Cc1[nH]c2ccc(F)cc2c1-c1nc2c3cccnc3c3ncccc3c2[nH]1 showed an IC50 [1] of 0.758 µM, an IC50 [2] of 0.966 µM and an IC50 [3] of 1.43 µM. The IC50 [4] was 1.38 µM, the IC50 [5] was 1.49 µM and the IC50 [6] was 1.76 µM. The viability, T/C [7] was 115%, the viability, T/C [8] was 124% and the viability, T/C [9] was 84.3%. The viability, T/C [10] was 41.8%, the viability, T/C [11] was 0.18% and the viability, T/C [12] was 0.17%. It also gave a viability, T/C [13] of 99.1%, a viability, T/C [14] of 142% and a viability, T/C [15] of 111%. For the same molecule, the viability, T/C [16] was 48.5%, the viability, T/C [17] was 0.18% and the viability, T/C [18] was 0.23%. For the same molecule, the viability, T/C [19] was 100%, the viability, T/C [20] was 137% and the viability, T/C [21] was 113%. For the same molecule, the viability, T/C [22] was 72.3%, the viability, T/C [23] was 0.17% and the viability, T/C [24] was 0.17%. The viability, T/C [25] was 101%, the viability, T/C [26] was 132% and the viability, T/C [27] was 120%. It also gave a viability, T/C [28] of 69.3%, a viability, T/C [29] of 0.29% and a viability, T/C [30] of 0.13%. The viability, T/C [31] was 96.8%, the viability, T/C [32] was 123% and the viability, T/C [33] was 105%. For the same molecule, the viability, T/C [34] was 75.9%, the viability, T/C [35] was 0.29% and the viability, T/C [36] was 0.48%. The viability, T/C [37] was 99.1%, the viability, T/C [38] was 106% and the viability, T/C [39] was 101%. For the same molecule, the viability, T/C [40] was 97.8%, the viability, T/C [41] was 0.55% and the viability, T/C [42] was 0.36%.

For `CC1COCCN1c1cc(C2(S(C)(=N)=O)CC2)nc(-c2ccnc3[nH]ccc23)n1` (stereo unspecified), the viability, T/C (compound 0.0316 µM) was 109% and 97.3% and 99.7%, the viability, T/C (compound 0.1 µM) was 100% and 91% and 89.6% and the viability, T/C (compound 0.316 µM) was 97.3% and 109% and 127%. For the same molecule, the viability, T/C (compound 1 µM) was 28% and 45.5% and 25.8%, the viability, T/C (compound 3.16 µM) was 9.05% and 14.9% and 6.37% and the viability, T/C (compound 10 µM) was 11.1% and 16.7% and 11.6%. The IC50 (curve of compound) was 0.693 µM and 0.909 µM and 0.705 µM.
